Measured values reported in PubChem BioAssay (NCI).
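The compound was tested at five concentrations on cells cultured in 96-well plates, with a 48-hour exposure period. At the GI50, growth is halved. Definition used: TGI = concentration required for complete inhibition of growth.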

Experiments:
Test in all cases: NCI-60 cell line screen, 48 h
786-0 renal = tested on: 786-0 renal
A498 renal = tested on: A498 renal
ACHN renal = tested on: ACHN renal
BT-549 breast = tested on: BT-549 breast
CAKI-1 renal = tested on: CAKI-1 renal
COLO 205 colon = tested on: COLO 205 colon
DU-145 prostate = tested on: DU-145 prostate
HCC-2998 colon = tested on: HCC-2998 colon
HCT-116 colon = tested on: HCT-116 colon
HCT-15 colon = tested on: HCT-15 colon
HL-60(TB) leukemia = tested on: HL-60(TB) leukemia
HOP-62 NSCLC = tested on: HOP-62 NSCLC
HOP-92 NSCLC = tested on: HOP-92 NSCLC
HS 578T breast = tested on: HS 578T breast
HT29 colon = tested on: HT29 colon
IGROV1 ovarian = tested on: IGROV1 ovarian
K-562 leukemia = tested on: K-562 leukemia
KM12 colon = tested on: KM12 colon
LOX IMVI melanoma = tested on: LOX IMVI melanoma
M14 melanoma = tested on: M14 melanoma
MALME-3M melanoma = tested on: MALME-3M melanoma
MCF7 breast = tested on: MCF7 breast
MDA-MB-231 breast = tested on: MDA-MB-231 breast
MDA-MB-435 = tested on: MDA-MB-435
MOLT-4 leukemia = tested on: MOLT-4 leukemia
NCI-H226 lung = tested on: NCI-H226 lung
NCI-H23 lung = tested on: NCI-H23 lung
NCI-H460 lung = tested on: NCI-H460 lung
NCI/ADR-RES ovarian = tested on: NCI/ADR-RES ovarian
OVCAR-3 ovarian = tested on: OVCAR-3 ovarian
OVCAR-4 ovarian = tested on: OVCAR-4 ovarian
OVCAR-5 ovarian = tested on: OVCAR-5 ovarian
OVCAR-8 ovarian = tested on: OVCAR-8 ovarian
PC-3 prostate = tested on: PC-3 prostate
RPMI-8226 leukemia = tested on: RPMI-8226 leukemia
RXF 393 renal = tested on: RXF 393 renal
SF-268 CNS = tested on: SF-268 CNS
SF-295 CNS = tested on: SF-295 CNS
SF-539 CNS = tested on: SF-539 CNS
SK-MEL-2 melanoma = tested on: SK-MEL-2 melanoma
SK-MEL-28 melanoma = tested on: SK-MEL-28 melanoma
SK-MEL-5 melanoma = tested on: SK-MEL-5 melanoma
SK-OV-3 ovarian = tested on: SK-OV-3 ovarian
SN12C renal = tested on: SN12C renal
SNB-19 CNS = tested on: SNB-19 CNS
SNB-75 CNS = tested on: SNB-75 CNS
SR leukemia = tested on: SR leukemia
SW-620 colon = tested on: SW-620 colon
T-47D breast = tested on: T-47D breast
TK-10 renal = tested on: TK-10 renal
U251 CNS = tested on: U251 CNS
UACC-62 melanoma = tested on: UACC-62 melanoma
UO-31 renal = tested on: UO-31 renal
A549 NSCLC = tested on: A549 NSCLC
CCRF-CEM leukemia = tested on: CCRF-CEM leukemia
EKVX NSCLC = tested on: EKVX NSCLC
NCI-H522 lung = tested on: NCI-H522 lung
UACC-257 melanoma = tested on: UACC-257 melanoma

`FC(F)(F)c1cccc(Nc2nc(-c3ccccc3)nc3ncccc23)c1` showed a GI50 (786-0 renal) of 2.51 µM, a TGI (786-0 renal) of 6.51 µM and a GI50 (A498 renal) of 1.7 µM. The TGI (A498 renal) was 5.21 µM, the GI50 (ACHN renal) was 3.3 µM and the TGI (ACHN renal) was 11.4 µM. For the same molecule, the GI50 (BT-549 breast) was 5.52 µM, the TGI (BT-549 breast) was 30.6 µM and the GI50 (CAKI-1 renal) was 3.86 µM. The TGI (CAKI-1 renal) was 18.7 µM, the GI50 (COLO 205 colon) was 4.07 µM and the TGI (COLO 205 colon) was 13.9 µM. For the same molecule, the GI50 (DU-145 prostate) was 4.72 µM, the TGI (DU-145 prostate) was 21.8 µM and the GI50 (HCC-2998 colon) was 4.91 µM. It also gave a TGI (HCC-2998 colon) of 30.2 µM, a GI50 (HCT-116 colon) of 3.62 µM and a TGI (HCT-116 colon) of 13.7 µM. For the same molecule, the GI50 (HCT-15 colon) was 3.28 µM, the TGI (HCT-15 colon) was 23.7 µM and the GI50 (HL-60(TB) leukemia) was 2.51 µM. The TGI (HL-60(TB) leukemia) was 6.93 µM, the GI50 (HOP-62 NSCLC) was 7.18 µM and the TGI (HOP-62 NSCLC) was 22.2 µM. The GI50 (HOP-92 NSCLC) was 4.65 µM, the TGI (HOP-92 NSCLC) was 18 µM and the GI50 (HS 578T breast) was 3.49 µM. The TGI (HS 578T breast) was 18.1 µM, the GI50 (HT29 colon) was 3.15 µM and the TGI (HT29 colon) was 12 µM. The GI50 (IGROV1 ovarian) was 4.25 µM, the TGI (IGROV1 ovarian) was 16.8 µM and the GI50 (K-562 leukemia) was 3.17 µM. The TGI (K-562 leukemia) was 17.9 µM, the GI50 (KM12 colon) was 4.3 µM and the TGI (KM12 colon) was over 100 µM. For the same molecule, the GI50 (LOX IMVI melanoma) was 4.48 µM, the TGI (LOX IMVI melanoma) was 24.6 µM and the GI50 (M14 melanoma) was 3.79 µM. The TGI (M14 melanoma) was 16.5 µM, the GI50 (MALME-3M melanoma) was 5.63 µM and the TGI (MALME-3M melanoma) was 28.7 µM. The GI50 (MCF7 breast) was 3.72 µM, the TGI (MCF7 breast) was 14.7 µM and the GI50 (MDA-MB-231 breast) was 4.88 µM. It also gave a TGI (MDA-MB-231 breast) of 41.2 µM, a GI50 (MDA-MB-435) of 3.77 µM and a TGI (MDA-MB-435) of 22.8 µM. It also gave a GI50 (MOLT-4 leukemia) of 3.11 µM, a TGI (MOLT-4 leukemia) of 9.04 µM and a GI50 (NCI-H226 lung) of 6.25 µM. For the same molecule, the TGI (NCI-H226 lung) was 35.6 µM, the GI50 (NCI-H23 lung) was 5.03 µM and the TGI (NCI-H23 lung) was 28.4 µM. For the same molecule, the GI50 (NCI-H460 lung) was 3.45 µM, the TGI (NCI-H460 lung) was 12.6 µM and the GI50 (NCI/ADR-RES ovarian) was 4.07 µM. It also gave a TGI (NCI/ADR-RES ovarian) of 23.5 µM, a GI50 (OVCAR-3 ovarian) of 5.2 µM and a TGI (OVCAR-3 ovarian) of 28 µM. It also gave a GI50 (OVCAR-4 ovarian) of 8.05 µM, a TGI (OVCAR-4 ovarian) of 45.6 µM and a GI50 (OVCAR-5 ovarian) of 13.2 µM. The TGI (OVCAR-5 ovarian) was 90.4 µM, the GI50 (OVCAR-8 ovarian) was 3.74 µM and the TGI (OVCAR-8 ovarian) was 18.2 µM. The GI50 (PC-3 prostate) was 3.34 µM, the TGI (PC-3 prostate) was 13.2 µM and the GI50 (RPMI-8226 leukemia) was 3.09 µM. It also gave a TGI (RPMI-8226 leukemia) of 9.16 µM, a GI50 (RXF 393 renal) of 2.21 µM and a TGI (RXF 393 renal) of 5.66 µM. It also gave a GI50 (SF-268 CNS) of 6.76 µM, a TGI (SF-268 CNS) of 44.3 µM and a GI50 (SF-295 CNS) of 2.61 µM. The TGI (SF-295 CNS) was 8.34 µM, the GI50 (SF-539 CNS) was 5.06 µM and the TGI (SF-539 CNS) was 17.5 µM. It also gave a GI50 (SK-MEL-2 melanoma) of 6.57 µM, a TGI (SK-MEL-2 melanoma) of 25.5 µM and a GI50 (SK-MEL-28 melanoma) of 7.93 µM. It also gave a TGI (SK-MEL-28 melanoma) of 74.4 µM, a GI50 (SK-MEL-5 melanoma) of 4.04 µM and a TGI (SK-MEL-5 melanoma) of 30.8 µM. For the same molecule, the GI50 (SK-OV-3 ovarian) was 11 µM, the TGI (SK-OV-3 ovarian) was 24 µM and the GI50 (SN12C renal) was 5 µM. For the same molecule, the TGI (SN12C renal) was 64.3 µM, the GI50 (SNB-19 CNS) was 7.68 µM and the TGI (SNB-19 CNS) was 37.3 µM. For the same molecule, the GI50 (SNB-75 CNS) was 7.85 µM, the TGI (SNB-75 CNS) was 31.3 µM and the GI50 (SR leukemia) was 2.61 µM. The TGI (SR leukemia) was 13.3 µM, the GI50 (SW-620 colon) was 5.2 µM and the TGI (SW-620 colon) was 24.7 µM. The GI50 (T-47D breast) was 3.53 µM, the TGI (T-47D breast) was 15.2 µM and the GI50 (TK-10 renal) was 2.61 µM. It also gave a TGI (TK-10 renal) of 10.5 µM, a GI50 (U251 CNS) of 3.52 µM and a TGI (U251 CNS) of 14.7 µM. For the same molecule, the GI50 (UACC-62 melanoma) was 5.84 µM, the TGI (UACC-62 melanoma) was 26.2 µM and the GI50 (UO-31 renal) was 4.86 µM. For the same molecule, the TGI (UO-31 renal) was 21.8 µM.

`Nc1nc(Cl)cc(NCC2(CO)CC(=O)C2)n1` showed a TGI (786-0 renal) of over 100 µM, a TGI (A549 NSCLC) of over 100 µM and a TGI (ACHN renal) of over 100 µM. The TGI (BT-549 breast) was over 100 µM, the TGI (CAKI-1 renal) was over 100 µM and the TGI (CCRF-CEM leukemia) was over 100 µM. The TGI (COLO 205 colon) was over 100 µM, the TGI (DU-145 prostate) was over 100 µM and the TGI (EKVX NSCLC) was over 100 µM. The TGI (HCC-2998 colon) was over 100 µM, the TGI (HCT-116 colon) was over 100 µM and the TGI (HCT-15 colon) was over 100 µM. For the same molecule, the TGI (HL-60(TB) leukemia) was over 100 µM, the TGI (HOP-62 NSCLC) was over 100 µM and the TGI (HOP-92 NSCLC) was over 100 µM. For the same molecule, the TGI (HS 578T breast) was over 100 µM, the TGI (HT29 colon) was over 100 µM and the TGI (IGROV1 ovarian) was over 100 µM. For the same molecule, the TGI (K-562 leukemia) was over 100 µM, the TGI (KM12 colon) was over 100 µM and the TGI (LOX IMVI melanoma) was over 100 µM. For the same molecule, the TGI (MALME-3M melanoma) was over 100 µM, the TGI (MCF7 breast) was over 100 µM and the TGI (MDA-MB-231 breast) was over 100 µM. The TGI (MDA-MB-435) was over 100 µM, the TGI (MOLT-4 leukemia) was over 100 µM and the TGI (NCI-H226 lung) was over 100 µM. For the same molecule, the TGI (NCI-H23 lung) was over 100 µM, the TGI (NCI-H460 lung) was over 100 µM and the TGI (NCI-H522 lung) was over 100 µM. It also gave a TGI (NCI/ADR-RES ovarian) of over 100 µM, a TGI (OVCAR-3 ovarian) of over 100 µM and a TGI (OVCAR-4 ovarian) of over 100 µM. It also gave a TGI (OVCAR-5 ovarian) of over 100 µM, a TGI (OVCAR-8 ovarian) of over 100 µM and a TGI (PC-3 prostate) of over 100 µM. It also gave a TGI (RPMI-8226 leukemia) of over 100 µM, a TGI (RXF 393 renal) of over 100 µM and a TGI (SF-268 CNS) of over 100 µM. It also gave a TGI (SF-295 CNS) of over 100 µM, a TGI (SF-539 CNS) of over 100 µM and a TGI (SK-MEL-2 melanoma) of over 100 µM. The TGI (SK-MEL-28 melanoma) was over 100 µM, the TGI (SK-MEL-5 melanoma) was over 100 µM and the TGI (SK-OV-3 ovarian) was over 100 µM. For the same molecule, the TGI (SN12C renal) was over 100 µM, the TGI (SNB-19 CNS) was over 100 µM and the TGI (SR leukemia) was over 100 µM. The TGI (SW-620 colon) was over 100 µM, the TGI (T-47D breast) was over 100 µM and the TGI (TK-10 renal) was over 100 µM. For the same molecule, the TGI (U251 CNS) was over 100 µM, the TGI (UACC-257 melanoma) was over 100 µM and the TGI (UACC-62 melanoma) was over 100 µM. It also gave a TGI (UO-31 renal) of over 100 µM.
